Assay results: ChEMBL document CHEMBL3407464, “Novel 5-HT6 receptor antagonists/D2 receptor partial agonists targeting behavioral and psychological symptoms of dementia” (Eur J Med Chem, 2015)
In brackets after ≈: the same amount, converted by molar mass.

Experiments:
[1] = target: T1, Sodium-dependent serotonin transporter (Homo sapiens, UniProt P31645); test: Displacement of [3H]imipramine from human SERT expressed in CHO cells at 1 uM; type: cell-based
[2] = target: T2, 5-hydroxytryptamine receptor 2A (Homo sapiens, UniProt P28223); test: Displacement of [3H]ketanserin from human 5-HT2A receptor expressed in HEK-293 cells; type: cell-based, HEK293
D(3) dopamine receptor [3] = target: T3, D(3) dopamine receptor (Homo sapiens, UniProt P35462); test: Displacement of [3H]methylspiperone from human dopamine D3 receptor expressed in CHO cells; type: cell-based
D(4) dopamine receptor = D(4) dopamine receptor (Homo sapiens, UniProt P21917); test: Displacement of [3H]methylspiperone from human dopamine D4 receptor expressed in CHO cells; type: cell-based
Histamine H1 receptor [4] = target: T4, Histamine H1 receptor (Homo sapiens, UniProt P35367); test: biochemical; type: cell-based, HEK293
[5] = target: Muscarinic acetylcholine receptor M1 (Homo sapiens, UniProt P11229); test: biochemical; type: cell-based, CHO
[6] = target: D(4) dopamine receptor (Homo sapiens) (UniProt P21917); test: Displacement of [3H]methylspiperone from human dopamine D4 receptor expressed in CHO cells at 1 uM; type: cell-based
[7] = target: T5, 5-hydroxytryptamine receptor 7 (Homo sapiens, UniProt P34969); test: Displacement of [3H]LSD from human 5-HT7 receptor expressed in CHO cells at 1 uM; type: cell-based
[8] = target: Alpha-2C adrenergic receptor (Homo sapiens) (UniProt P18825); test: Displacement of [3H]RX-821002 from human adrenergic alpha2C receptor expressed in CHO cells at 1 uM; type: cell-based
Histamine H1 receptor [9] = target: T4, Histamine H1 receptor; test: Displacement of [3H]pyrilamine from human histamine H1 receptor expressed in HEK-293 cells at 1 uM; type: cell-based; conditions: HEK293
Rattus norvegicus [10] = test: Anti-depressant-like activity in intraperitoneally dosed 3-months old Wistar rat assessed as increase in saccharin self-administration; type: functional; conditions: ip, read-out: MED
Rattus norvegicus [11] = test: Anti-depressant-like activity in intraperitoneally dosed 3-months old Wistar rat by Porsolt's forced swim test; type: functional; conditions: ip, read-out: MED
Rattus norvegicus [12] = test: Anti-depressant-like activity in intraperitoneally dosed >18-months old Wistar rat by Porsolt's forced swim test; type: functional; conditions: ip, read-out: MED
Rattus norvegicus [13] = test: Anxiolytic activity in intraperitoneally dosed 3-months old Wistar rat by Vogel's conflict drinking test; type: functional; conditions: ip, read-out: MED
Rattus norvegicus [14] = test: Anxiolytic activity in intraperitoneally dosed 3-months old Wistar rat by open-field test; type: functional; conditions: ip, read-out: MED
Rattus norvegicus [15] = test: Anxiolytic activity in intraperitoneally dosed >18-months old Wistar rat by open-field test; type: functional; conditions: ip, read-out: MED
Rattus norvegicus [16] = test: Procognitive effect in intraperitoneally dosed 3-months old Wistar rat assessed as extinction of non-reinforced responding for sweet reward; type: functional; conditions: ip, read-out: MED
Rattus norvegicus [17] = test: Induction of reinforcement of lever pressing in intraperitoneally dosed Wistar rat in absence of sweet reward; type: organism-based; conditions: in vivo, ip
[18] = Aqueous solubility in simulated intestinal fluid at 2 x 10^-4 M; type: physicochemical
[19] = Aqueous solubility in PBS buffer at pH 7.4 at 2 x 10^-4 M; type: physicochemical
[20] = Aqueous solubility in simulated gastric fluid at 2 x 10^-4 M; type: physicochemical
[21] = Protein binding in human plasma 1 x 10^-5 M; type: ADME, cell-free; conditions: read-out: PPB
[22] = Permeability across apical to basolateral side in human Caco2 cells at 1 x 10^-5 M; type: ADME, cell-based; conditions: Caco-2, read-out: permeability
[23] = Permeability across basolateral to apical side in human Caco2 cells at 1 x 10^-5 M; type: ADME, cell-based; conditions: Caco-2, read-out: permeability
[24] = Metabolic stability in human liver microsomes assessed as compound remaining after 15 mins at 1 x 10^-7 M (reference value: 100%); type: ADME; conditions: read-out: Stability
[25] = Metabolic stability in human liver microsomes assessed as compound remaining after 30 mins at 1 x 10^-7 M (reference value: 100%); type: ADME; conditions: read-out: Stability
[26] = Metabolic stability in human liver microsomes assessed as compound remaining after 45 mins at 1 x 10^-7 M (reference value: 100%); type: ADME; conditions: read-out: Stability
[27] = Metabolic stability in human liver microsomes assessed as compound remaining after 60 mins at 1 x 10^-7 M (reference value: 100%); type: ADME; conditions: read-out: Stability
[28] = Half life in human liver microsomes at 1 x 10^-7 M; type: ADME
[29] = Intrinsic clearance in human liver microsomes at 1 x 10^-7 M; type: ADME; conditions: read-out: CLH
[30] = target: T6, 5-hydroxytryptamine receptor 6 (Homo sapiens, UniProt P50406); test: Antagonist activity against human recombinant 5-HT6 receptor expressed in CHOK1 cells assessed as reduction in serotonin-induced increase in intracellular Ca2+ levels by aequorin based radiometric and luminescence plate counting method; type: functional, cell-based; conditions: CHO-K1
D(2) dopamine receptor [31] = target: T7, D(2) dopamine receptor (Homo sapiens, UniProt P14416); test: Agonist activity at human recombinant dopmaine D2L receptor expressed in CHOK1 cells assessed as intracellular Ca2+ levels by aequorin based radiometric and luminescence plate counting method; type: functional, cell-based, CHO-K1
D(3) dopamine receptor [32] = target: T3, D(3) dopamine receptor; test: Agonist activity at human recombinant dopmaine D3 receptor expressed in CHOK1 cells assessed as effect on cAMP levels; type: functional, cell-based, CHO-K1
[33] = target: 5-hydroxytryptamine receptor 2C (Homo sapiens) (UniProt P28335); test: Displacement of [3H]mesulergine from human 5-HT2C receptor expressed in HEK-293 cells at 1 uM; type: cell-based; conditions: HEK293
[34] = target: T8, Muscarinic acetylcholine receptor M1 (Homo sapiens) (UniProt P11229); test: Displacement of [3H]pirenzepine from human muscarinic M1 receptor expressed in CHO cells at 1 uM; type: cell-based
T8 sequence (whole entry): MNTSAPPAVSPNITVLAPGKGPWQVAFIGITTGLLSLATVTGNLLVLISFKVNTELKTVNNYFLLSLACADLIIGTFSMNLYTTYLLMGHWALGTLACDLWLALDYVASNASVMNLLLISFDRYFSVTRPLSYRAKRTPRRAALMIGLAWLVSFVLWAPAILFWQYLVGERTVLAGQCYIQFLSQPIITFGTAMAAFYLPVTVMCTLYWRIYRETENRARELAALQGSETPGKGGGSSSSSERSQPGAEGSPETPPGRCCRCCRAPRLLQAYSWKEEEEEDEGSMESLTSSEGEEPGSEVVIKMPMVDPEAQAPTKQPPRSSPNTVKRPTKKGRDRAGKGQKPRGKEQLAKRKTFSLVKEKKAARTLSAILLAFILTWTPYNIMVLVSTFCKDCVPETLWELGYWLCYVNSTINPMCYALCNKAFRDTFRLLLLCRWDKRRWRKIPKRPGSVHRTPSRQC

[35] = target: Voltage-gated inwardly rectifying potassium channel KCNH2 (Homo sapiens, UniProt Q12809)
D(3) dopamine receptor [36] = target: T3, D(3) dopamine receptor; conditions: CHO, 1 uM
[37] = target: 5-hydroxytryptamine receptor 1A (Homo sapiens) (UniProt P08908); conditions: HEK293, 1 uM
[38] = target: T2, 5-hydroxytryptamine receptor 2A; conditions: HEK293, 1 uM
[39] = target: Alpha-1A adrenergic receptor (Homo sapiens) (UniProt P35348); conditions: CHO, 1 uM
[40] = target: T6, 5-hydroxytryptamine receptor 6; test: biochemical
D(2) dopamine receptor [41] = target: T7, D(2) dopamine receptor; test: biochemical
D(2) dopamine receptor [42] = target: T7, D(2) dopamine receptor; test: biochemical; remark: listed apart in the source
[43] = target: T5, 5-hydroxytryptamine receptor 7; test: biochemical
[44] = target: 5-hydroxytryptamine receptor 1A (Homo sapiens, UniProt P08908); test: biochemical
[45] = target: 5-hydroxytryptamine receptor 2C (Homo sapiens, UniProt P28335); test: biochemical
D(1A) dopamine receptor = D(1A) dopamine receptor (Homo sapiens, UniProt P21728); test: biochemical
[46] = target: Alpha-1A adrenergic receptor (Homo sapiens, UniProt P35348); test: biochemical
[47] = target: Alpha-2C adrenergic receptor (Homo sapiens, UniProt P18825); test: biochemical
[48] = target: T1, Sodium-dependent serotonin transporter; test: biochemical

T7 sequence (P14416 whole entry): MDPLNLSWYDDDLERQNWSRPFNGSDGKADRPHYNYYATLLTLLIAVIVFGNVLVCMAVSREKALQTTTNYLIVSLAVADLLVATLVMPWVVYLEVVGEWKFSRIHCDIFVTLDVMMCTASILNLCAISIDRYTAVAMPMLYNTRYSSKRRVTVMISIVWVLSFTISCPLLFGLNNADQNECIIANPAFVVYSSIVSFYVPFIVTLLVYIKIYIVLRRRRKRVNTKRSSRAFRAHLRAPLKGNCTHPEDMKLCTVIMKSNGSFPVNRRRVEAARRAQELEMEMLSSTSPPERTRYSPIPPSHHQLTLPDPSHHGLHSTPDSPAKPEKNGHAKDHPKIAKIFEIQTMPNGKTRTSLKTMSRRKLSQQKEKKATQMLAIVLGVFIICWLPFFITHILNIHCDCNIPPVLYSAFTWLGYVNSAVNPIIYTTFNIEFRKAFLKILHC
T3 sequence (P35462 whole entry): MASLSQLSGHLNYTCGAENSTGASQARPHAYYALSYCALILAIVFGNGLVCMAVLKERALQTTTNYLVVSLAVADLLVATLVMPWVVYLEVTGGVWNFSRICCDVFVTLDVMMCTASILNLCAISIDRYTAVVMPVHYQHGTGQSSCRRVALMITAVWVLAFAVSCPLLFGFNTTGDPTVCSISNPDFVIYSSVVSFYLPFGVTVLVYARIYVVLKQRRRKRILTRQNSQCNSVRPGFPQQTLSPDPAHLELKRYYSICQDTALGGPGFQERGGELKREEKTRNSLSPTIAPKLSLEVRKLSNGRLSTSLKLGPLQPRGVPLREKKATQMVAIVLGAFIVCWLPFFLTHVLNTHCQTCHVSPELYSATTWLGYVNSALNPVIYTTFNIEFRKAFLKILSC
T5 sequence (P34969 whole entry): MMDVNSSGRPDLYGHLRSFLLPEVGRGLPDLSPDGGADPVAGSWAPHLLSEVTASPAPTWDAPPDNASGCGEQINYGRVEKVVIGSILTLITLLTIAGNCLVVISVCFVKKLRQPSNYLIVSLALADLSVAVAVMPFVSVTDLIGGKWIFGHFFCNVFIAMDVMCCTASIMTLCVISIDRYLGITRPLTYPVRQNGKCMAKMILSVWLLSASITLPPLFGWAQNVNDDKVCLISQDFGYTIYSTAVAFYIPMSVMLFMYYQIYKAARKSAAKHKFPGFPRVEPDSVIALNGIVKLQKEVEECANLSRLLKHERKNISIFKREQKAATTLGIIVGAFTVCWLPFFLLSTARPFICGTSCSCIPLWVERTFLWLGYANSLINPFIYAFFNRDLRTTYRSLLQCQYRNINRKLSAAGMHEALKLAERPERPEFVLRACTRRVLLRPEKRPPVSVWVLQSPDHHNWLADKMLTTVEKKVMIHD
T4 sequence (P35367 whole entry): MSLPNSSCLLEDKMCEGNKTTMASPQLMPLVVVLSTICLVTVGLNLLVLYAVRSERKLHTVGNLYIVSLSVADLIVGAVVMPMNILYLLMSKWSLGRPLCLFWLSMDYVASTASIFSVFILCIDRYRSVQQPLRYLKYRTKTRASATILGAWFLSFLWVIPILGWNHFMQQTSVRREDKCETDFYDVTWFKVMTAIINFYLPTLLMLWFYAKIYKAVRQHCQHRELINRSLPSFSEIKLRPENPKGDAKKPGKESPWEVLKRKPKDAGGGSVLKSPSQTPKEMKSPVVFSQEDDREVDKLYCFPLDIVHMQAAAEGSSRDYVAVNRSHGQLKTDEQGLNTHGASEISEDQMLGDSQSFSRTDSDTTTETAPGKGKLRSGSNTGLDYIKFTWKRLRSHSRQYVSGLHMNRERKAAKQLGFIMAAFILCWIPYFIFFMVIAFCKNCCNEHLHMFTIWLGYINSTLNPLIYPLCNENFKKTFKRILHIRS
T2 sequence (P28223 whole entry): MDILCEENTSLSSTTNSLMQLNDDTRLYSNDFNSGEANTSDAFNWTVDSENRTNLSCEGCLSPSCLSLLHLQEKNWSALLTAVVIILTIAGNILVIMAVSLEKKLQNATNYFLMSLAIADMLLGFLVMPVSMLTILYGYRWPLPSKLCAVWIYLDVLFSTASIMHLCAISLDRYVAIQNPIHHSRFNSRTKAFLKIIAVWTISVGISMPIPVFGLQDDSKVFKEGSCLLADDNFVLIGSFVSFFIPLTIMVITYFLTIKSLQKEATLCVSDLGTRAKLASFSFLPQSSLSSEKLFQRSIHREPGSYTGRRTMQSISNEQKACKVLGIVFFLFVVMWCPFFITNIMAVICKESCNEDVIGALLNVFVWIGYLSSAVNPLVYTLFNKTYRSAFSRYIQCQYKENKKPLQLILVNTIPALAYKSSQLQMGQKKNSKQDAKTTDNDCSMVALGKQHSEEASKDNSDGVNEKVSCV
T6 sequence (P50406 whole entry): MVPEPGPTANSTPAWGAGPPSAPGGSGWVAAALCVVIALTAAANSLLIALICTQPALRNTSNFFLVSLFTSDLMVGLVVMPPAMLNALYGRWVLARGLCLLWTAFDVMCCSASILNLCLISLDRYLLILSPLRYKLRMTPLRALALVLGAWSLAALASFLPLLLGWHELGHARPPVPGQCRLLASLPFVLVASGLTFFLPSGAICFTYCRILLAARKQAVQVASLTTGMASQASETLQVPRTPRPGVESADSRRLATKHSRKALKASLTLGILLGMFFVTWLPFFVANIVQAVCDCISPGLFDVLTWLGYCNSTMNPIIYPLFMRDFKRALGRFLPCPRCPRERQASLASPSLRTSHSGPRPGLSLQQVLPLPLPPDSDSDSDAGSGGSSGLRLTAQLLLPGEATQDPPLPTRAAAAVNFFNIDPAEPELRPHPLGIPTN
Sequence of D(4) dopamine receptor (P21917 whole entry): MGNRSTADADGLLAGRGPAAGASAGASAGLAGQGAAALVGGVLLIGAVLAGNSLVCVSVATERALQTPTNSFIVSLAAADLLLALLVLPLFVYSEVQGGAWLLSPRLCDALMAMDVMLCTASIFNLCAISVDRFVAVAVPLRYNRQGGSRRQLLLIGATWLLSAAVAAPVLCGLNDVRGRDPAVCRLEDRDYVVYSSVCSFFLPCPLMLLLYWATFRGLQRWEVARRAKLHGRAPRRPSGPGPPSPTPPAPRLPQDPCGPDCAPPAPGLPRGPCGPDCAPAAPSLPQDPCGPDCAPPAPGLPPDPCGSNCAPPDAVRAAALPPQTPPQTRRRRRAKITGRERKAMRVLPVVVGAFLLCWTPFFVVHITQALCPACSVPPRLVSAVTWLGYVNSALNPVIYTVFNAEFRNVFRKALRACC
Sequence of D(4) dopamine receptor (Homo sapiens) (P21917 whole entry): as above
Sequence of 5-hydroxytryptamine receptor 2C (P28335 whole entry): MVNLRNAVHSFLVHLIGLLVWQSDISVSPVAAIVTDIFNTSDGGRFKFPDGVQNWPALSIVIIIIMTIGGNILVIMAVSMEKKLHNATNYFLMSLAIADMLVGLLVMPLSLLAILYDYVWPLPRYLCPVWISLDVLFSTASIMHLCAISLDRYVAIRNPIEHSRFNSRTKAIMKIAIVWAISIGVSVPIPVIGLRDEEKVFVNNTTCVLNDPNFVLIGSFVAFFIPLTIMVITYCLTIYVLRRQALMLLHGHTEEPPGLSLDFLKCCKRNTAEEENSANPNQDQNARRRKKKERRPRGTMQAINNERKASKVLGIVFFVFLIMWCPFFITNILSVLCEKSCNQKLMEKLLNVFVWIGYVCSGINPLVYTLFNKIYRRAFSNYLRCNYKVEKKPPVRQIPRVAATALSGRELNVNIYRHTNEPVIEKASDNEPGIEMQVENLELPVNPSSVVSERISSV
Sequence of 5-hydroxytryptamine receptor 2C (Homo sapiens) (P28335 whole entry): as above
Sequence of Voltage-gated inwardly rectifying potassium channel KCNH2 (Q12809 whole entry): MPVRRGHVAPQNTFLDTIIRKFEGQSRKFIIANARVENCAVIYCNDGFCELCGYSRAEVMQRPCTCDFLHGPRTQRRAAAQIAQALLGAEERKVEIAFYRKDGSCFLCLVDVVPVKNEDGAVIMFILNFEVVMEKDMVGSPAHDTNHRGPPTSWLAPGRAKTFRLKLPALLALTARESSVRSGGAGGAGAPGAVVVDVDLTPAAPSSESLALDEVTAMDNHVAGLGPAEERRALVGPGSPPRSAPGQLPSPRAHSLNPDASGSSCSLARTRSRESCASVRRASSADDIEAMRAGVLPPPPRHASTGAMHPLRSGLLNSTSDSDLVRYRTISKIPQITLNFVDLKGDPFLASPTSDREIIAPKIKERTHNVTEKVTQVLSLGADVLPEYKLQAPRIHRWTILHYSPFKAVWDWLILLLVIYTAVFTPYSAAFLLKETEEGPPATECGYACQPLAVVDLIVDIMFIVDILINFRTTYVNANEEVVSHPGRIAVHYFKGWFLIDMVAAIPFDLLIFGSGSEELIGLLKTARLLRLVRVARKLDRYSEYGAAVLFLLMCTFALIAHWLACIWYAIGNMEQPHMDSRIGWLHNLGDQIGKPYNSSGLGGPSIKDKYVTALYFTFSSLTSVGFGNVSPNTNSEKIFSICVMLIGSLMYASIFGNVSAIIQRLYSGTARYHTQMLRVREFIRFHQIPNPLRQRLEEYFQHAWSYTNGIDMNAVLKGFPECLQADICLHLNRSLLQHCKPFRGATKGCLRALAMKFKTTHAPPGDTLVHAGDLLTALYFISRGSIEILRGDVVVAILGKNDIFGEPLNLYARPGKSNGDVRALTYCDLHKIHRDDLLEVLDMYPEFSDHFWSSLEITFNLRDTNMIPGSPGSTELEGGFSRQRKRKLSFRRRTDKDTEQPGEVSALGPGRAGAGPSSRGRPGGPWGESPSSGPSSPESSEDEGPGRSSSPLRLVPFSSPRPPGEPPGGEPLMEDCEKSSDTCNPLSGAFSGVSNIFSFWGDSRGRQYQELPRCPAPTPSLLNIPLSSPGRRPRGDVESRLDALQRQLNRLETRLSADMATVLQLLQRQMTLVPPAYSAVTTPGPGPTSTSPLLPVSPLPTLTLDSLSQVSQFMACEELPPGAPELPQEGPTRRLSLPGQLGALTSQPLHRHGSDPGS

SMILES: NC(=O)c1ccccc1OCCCN1CCN(c2cccc3c2ccn3S(=O)(=O)c2ccccc2)CC1
- inhibition [1]: < 40%
- Ki [2]: 29 nM
- Ki (D(3) dopamine receptor [3]): 0.1 nM
- Ki (D(4) dopamine receptor): 7.1 nM
- Ki (Histamine H1 receptor [4]): 160 nM
- Ki [5]: > 1000 nM
- inhibition [6]: > 90%
- inhibition [7]: > 50%
- inhibition [8]: > 50%
- inhibition (Histamine H1 receptor [9]): > 50%
- minimal effective dose (Rattus norvegicus [10]): 1 mg/kg
- minimal effective dose (Rattus norvegicus [11]): 1 mg/kg
- minimal effective dose (Rattus norvegicus [12]): 1 mg/kg
- minimal effective dose (Rattus norvegicus [13]): 1 mg/kg
- minimal effective dose (Rattus norvegicus [14]): 1 mg/kg
- minimal effective dose (Rattus norvegicus [15]): 3 mg/kg
- minimal effective dose (Rattus norvegicus [16]): 3 mg/kg
- Activity (Rattus norvegicus [17]): Non-toxic
- solubility at 200 µM [18]: 97.3 µM (≈ 50.5 µg/mL)
- solubility at 200 µM [19]: 7 µM (≈ 3.63 µg/mL)
- solubility at 200 µM [20]: 200 µM (≈ 104 µg/mL)
- fraction unbound at 10 µM [21]: < 0.01
- Papp A→B at 10 µM [22]: 0.7 ×10⁻⁶ cm/s
- Papp B→A at 10 µM [23]: 0.3 ×10⁻⁶ cm/s
- remaining at 0.25 h, 0.1 µM [24]: 90.6%
- remaining at 0.5 h, 0.1 µM [25]: 79.3%
- remaining at 0.75 h, 0.1 µM [26]: 68%
- remaining at 1 h, 0.1 µM [27]: 57.9%
- half-life at 0.1 µM [28]: > 1 h
- microsomal CLint at 0.1 µM [29]: < 116 µL/min/mg
- Kb [30]: 1.8 nM
- EC50 (D(2) dopamine receptor [31]): 54 nM
- EC50 (D(3) dopamine receptor [32]): > 1000 nM
- inhibition [33]: < 40%
- inhibition [34]: < 40%
- IC50 [35]: 6200 nM
- inhibition (D(3) dopamine receptor [36]): > 90%
- inhibition [37]: > 90%
- inhibition [38]: > 90%
- inhibition [39]: > 50%
- Ki [40]: 1 nM
- Ki (D(2) dopamine receptor [41]): 6.3 nM
- Ki (D(2) dopamine receptor [42]): 6.3 nM
- Ki [43]: 180 nM
- Ki [44]: 6.7 nM
- Ki [45]: > 1000 nM
- Ki (D(1A) dopamine receptor): > 1000 nM
- Ki [46]: 16.9 nM
- Ki [47]: 190 nM
- Ki [48]: > 1000 nM
